Test results taken from PubChem BioAssay (NCI).
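These data come from cells grown in 96-well plates and exposed to compound for 48 hours at five concentrations. At the GI50, growth is halved. TGI marks complete inhibition of growth.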

How the values were obtained:
Experiment in all cases: inhibition of tumour cell growth, NCI panel, 48 h
T-47D breast = tested on: T-47D breast
M14 melanoma = tested on: M14 melanoma
RPMI-8226 leukemia = tested on: RPMI-8226 leukemia
HOP-62 NSCLC = tested on: HOP-62 NSCLC
SW-620 colon = tested on: SW-620 colon
OVCAR-5 ovarian = tested on: OVCAR-5 ovarian
TK-10 renal = tested on: TK-10 renal
SF-295 CNS = tested on: SF-295 CNS
NCI-H226 lung = tested on: NCI-H226 lung
COLO 205 colon = tested on: COLO 205 colon
EKVX NSCLC = tested on: EKVX NSCLC
CAKI-1 renal = tested on: CAKI-1 renal
UACC-257 melanoma = tested on: UACC-257 melanoma
SNB-19 CNS = tested on: SNB-19 CNS
NCI-H23 lung = tested on: NCI-H23 lung
A549 NSCLC = tested on: A549 NSCLC
SNB-75 CNS = tested on: SNB-75 CNS
U251 CNS = tested on: U251 CNS
BT-549 breast = tested on: BT-549 breast
UACC-62 melanoma = tested on: UACC-62 melanoma
HL-60(TB) leukemia = tested on: HL-60(TB) leukemia
SR leukemia = tested on: SR leukemia
SK-MEL-28 melanoma = tested on: SK-MEL-28 melanoma
MDA-MB-435 = tested on: MDA-MB-435
OVCAR-4 ovarian = tested on: OVCAR-4 ovarian
NCI-H522 lung = tested on: NCI-H522 lung
MALME-3M melanoma = tested on: MALME-3M melanoma
OVCAR-8 ovarian = tested on: OVCAR-8 ovarian
HCT-116 colon = tested on: HCT-116 colon
KM12 colon = tested on: KM12 colon
HT29 colon = tested on: HT29 colon
SK-OV-3 ovarian = tested on: SK-OV-3 ovarian
MOLT-4 leukemia = tested on: MOLT-4 leukemia
LOX IMVI melanoma = tested on: LOX IMVI melanoma
HS 578T breast = tested on: HS 578T breast
SK-MEL-5 melanoma = tested on: SK-MEL-5 melanoma
MDA-MB-231 breast = tested on: MDA-MB-231 breast
DU-145 prostate = tested on: DU-145 prostate
HOP-92 NSCLC = tested on: HOP-92 NSCLC
SF-539 CNS = tested on: SF-539 CNS
PC-3 prostate = tested on: PC-3 prostate
RXF 393 renal = tested on: RXF 393 renal
A498 renal = tested on: A498 renal
UO-31 renal = tested on: UO-31 renal
MCF7 breast = tested on: MCF7 breast
OVCAR-3 ovarian = tested on: OVCAR-3 ovarian
SK-MEL-2 melanoma = tested on: SK-MEL-2 melanoma
NCI-H460 lung = tested on: NCI-H460 lung
HCC-2998 colon = tested on: HCC-2998 colon
NCI/ADR-RES ovarian = tested on: NCI/ADR-RES ovarian
786-0 renal = tested on: 786-0 renal
HCT-15 colon = tested on: HCT-15 colon
SN12C renal = tested on: SN12C renal
SF-268 CNS = tested on: SF-268 CNS
ACHN renal = tested on: ACHN renal

Structure (SMILES): O=S(=O)(Nc1ccc2ccccc2c1)N1CCCCC1
- GI50 (T-47D breast): 11 µM
- TGI (T-47D breast): 45.8 µM
- GI50 (M14 melanoma): 8.94 µM
- TGI (M14 melanoma): 25.5 µM
- GI50 (RPMI-8226 leukemia): 17.8 µM
- TGI (RPMI-8226 leukemia): 75.5 µM
- GI50 (HOP-62 NSCLC): 3.93 µM
- TGI (HOP-62 NSCLC): 18.7 µM
- GI50 (SW-620 colon): 5.7 µM
- TGI (SW-620 colon): 20.7 µM
- GI50 (OVCAR-5 ovarian): 19.5 µM
- TGI (OVCAR-5 ovarian): 43.7 µM
- GI50 (TK-10 renal): 12.7 µM
- TGI (TK-10 renal): 32.1 µM
- GI50 (SF-295 CNS): 2.4 µM
- TGI (SF-295 CNS): 15.2 µM
- GI50 (NCI-H226 lung): 14.8 µM
- TGI (NCI-H226 lung): 33.2 µM
- GI50 (COLO 205 colon): 9.36 µM
- TGI (COLO 205 colon): 25.3 µM
- GI50 (EKVX NSCLC): 7.99 µM
- TGI (EKVX NSCLC): 41 µM
- GI50 (CAKI-1 renal): 1.81 µM
- TGI (CAKI-1 renal): 7.97 µM
- GI50 (UACC-257 melanoma): 10.1 µM
- TGI (UACC-257 melanoma): 24 µM
- GI50 (SNB-19 CNS): 18.4 µM
- TGI (SNB-19 CNS): > 100 µM
- GI50 (NCI-H23 lung): 12.2 µM
- TGI (NCI-H23 lung): 34 µM
- GI50 (A549 NSCLC): 11.9 µM
- TGI (A549 NSCLC): 38.1 µM
- GI50 (SNB-75 CNS): 2.38 µM
- TGI (SNB-75 CNS): 20.7 µM
- GI50 (U251 CNS): 12 µM
- TGI (U251 CNS): 26.7 µM
- GI50 (BT-549 breast): 13.8 µM
- TGI (BT-549 breast): 28.4 µM
- GI50 (UACC-62 melanoma): 8.7 µM
- TGI (UACC-62 melanoma): 22.2 µM
- GI50 (HL-60(TB) leukemia): 9.31 µM
- TGI (HL-60(TB) leukemia): 43.2 µM
- GI50 (SR leukemia): 4.15 µM
- TGI (SR leukemia): 44.6 µM
- GI50 (SK-MEL-28 melanoma): 12 µM
- TGI (SK-MEL-28 melanoma): 28 µM
- GI50 (MDA-MB-435): 1.91 µM
- TGI (MDA-MB-435): 10.8 µM
- GI50 (OVCAR-4 ovarian): 15.6 µM
- TGI (OVCAR-4 ovarian): 50.1 µM
- GI50 (NCI-H522 lung): 2.49 µM
- TGI (NCI-H522 lung): 8 µM
- GI50 (MALME-3M melanoma): 14.5 µM
- TGI (MALME-3M melanoma): 34 µM
- GI50 (OVCAR-8 ovarian): 19.6 µM
- TGI (OVCAR-8 ovarian): 57 µM
- GI50 (HCT-116 colon): 9.94 µM
- TGI (HCT-116 colon): 23.4 µM
- GI50 (KM12 colon): 4.21 µM
- TGI (KM12 colon): 17.2 µM
- GI50 (HT29 colon): 4.87 µM
- TGI (HT29 colon): 18.9 µM
- GI50 (SK-OV-3 ovarian): 8.93 µM
- TGI (SK-OV-3 ovarian): 37.4 µM
- GI50 (MOLT-4 leukemia): 7.21 µM
- TGI (MOLT-4 leukemia): 58 µM
- GI50 (LOX IMVI melanoma): 9.97 µM
- TGI (LOX IMVI melanoma): 24.6 µM
- GI50 (HS 578T breast): 11.9 µM
- TGI (HS 578T breast): 33.6 µM
- GI50 (SK-MEL-5 melanoma): 8.33 µM
- TGI (SK-MEL-5 melanoma): 21 µM
- GI50 (MDA-MB-231 breast): 10.1 µM
- TGI (MDA-MB-231 breast): 25 µM
- GI50 (DU-145 prostate): 12.1 µM
- TGI (DU-145 prostate): 30.3 µM
- GI50 (HOP-92 NSCLC): 5.42 µM
- TGI (HOP-92 NSCLC): 20.4 µM
- GI50 (SF-539 CNS): 10.5 µM
- TGI (SF-539 CNS): 24.9 µM
- GI50 (PC-3 prostate): 13.1 µM
- TGI (PC-3 prostate): 41.5 µM
- GI50 (RXF 393 renal): 5.58 µM
- TGI (RXF 393 renal): 19.7 µM
- GI50 (A498 renal): 3.33 µM
- TGI (A498 renal): 15.7 µM
- GI50 (UO-31 renal): 6.87 µM
- TGI (UO-31 renal): 22.9 µM
- GI50 (MCF7 breast): 9.55 µM
- TGI (MCF7 breast): 88.9 µM
- GI50 (OVCAR-3 ovarian): 4.71 µM
- TGI (OVCAR-3 ovarian): 16.7 µM
- GI50 (SK-MEL-2 melanoma): 9.85 µM
- TGI (SK-MEL-2 melanoma): 23.6 µM
- GI50 (NCI-H460 lung): 10.1 µM
- TGI (NCI-H460 lung): 23.3 µM
- GI50 (HCC-2998 colon): 8.35 µM
- TGI (HCC-2998 colon): 22.2 µM
- GI50 (NCI/ADR-RES ovarian): 4.09 µM
- TGI (NCI/ADR-RES ovarian): 22.2 µM
- GI50 (786-0 renal): 13.6 µM
- TGI (786-0 renal): 30 µM
- GI50 (HCT-15 colon): 8 µM
- TGI (HCT-15 colon): 35.2 µM
- GI50 (SN12C renal): 13.2 µM
- TGI (SN12C renal): 29.1 µM
- GI50 (SF-268 CNS): 11.7 µM
- TGI (SF-268 CNS): 28.8 µM
- GI50 (ACHN renal): 18.1 µM
- TGI (ACHN renal): 60.9 µM
